Consider four molecules from PMC9503518, “Antibacterial and Antifungal Properties of a Novel Antimicrobial Peptide GK-19 and Its Application in Skin and Soft Tissue Infections Induced by MRSA or Candida albicans” (Pharmaceutics, 2022).

The subject of series [1] is Candida albicans (C. albicans, ATCC90028). Format: cell-based. Particulars: 1 × 10^6 CFU/mL, PDB, 12 h, peptide 0-20 μM, absorbance at 600 nm, n = 5. The source says: (§1) Pseudomonas aeruginosa (P. aeruginosa, ATCC27853), Methicillin-Resistant Staphylococcus aureus (MRSA, 2104270609, clinically isolated strain), Escherichia coli (E. coli, ATCC25922), Klebsiella pneumoniae (K. pneumoniae, ATCC700603), Enterococcus faecalis (E. faecalis, ATCC29212), Candida krusei (C. krusei, ATCC6258), Candida albicans (C. albicans, ATCC90028), and Candida glabrata (C. glabrata, ATCCMYA-2950) were obtained from the First Affiliated Hospital of Xi’an Jiaotong University. Bacterial strains were cultured in MHA or MHB. Fungal strains were cultured in PDA or PDB.
(§2) Strains were incubated in MHB or PDB. After growing for 12–16 h at 37 °C, 200 rpm, 100 μL of 1 × 10^6 CFU/mL of the strains was seeded into 96-well plates and incubated with fresh culture medium containing various antimicrobial peptides (peptide concentration: 0, 0.5, 1.0, 2.0, 3.0, 5.0, 10, 15 or 20 μM) for 12 h. Each concentration was repeated five times. Absorbance at 600 nm was measured using the Multilabel Reader Varioskan Flash (Thermo Fisher). […] (1)

The test system of series [2] is Enterococcus faecalis (E. faecalis, ATCC29212). It counts as cell-based. Conditions: 1 × 10^6 CFU/mL, MHB, 12 h, peptide 0-20 μM, absorbance at 600 nm, n = 5.
From the text: as §1, §2

For series [3], the system named is Klebsiella pneumoniae (K. pneumoniae, ATCC700603). It counts as cell-based. Conditions: 1 × 10^6 CFU/mL, MHB, 12 h, peptide 0-20 μM, absorbance at 600 nm, n = 5.
From the text: as §1, §2

Series [4] has as its system Methicillin-Resistant Staphylococcus aureus (MRSA, 2104270609, clinically isolated strain). Format: cell-based. Particulars: 1 × 10^6 CFU/mL, MHB, 12 h, peptide 0-20 μM, absorbance at 600 nm, n = 5.
From the text: as §1, §2

Series [5] concerns Candida krusei (C. krusei, ATCC6258). Format: cell-based. Conditions: 12 h, absorbance at 600 nm, n = 5.
From the text: as §1, §2

In series [6] the test system is Pseudomonas aeruginosa (P. aeruginosa, ATCC27853). It counts as cell-based. Particulars: 1 × 10^6 CFU/mL, MHB, 12 h, peptide 0-20 μM, absorbance at 600 nm, n = 5.
From the text: as §1, §2

The test system of series [7] is Candida glabrata (C. glabrata, ATCCMYA-2950). Format: cell-based. Particulars: 1 × 10^6 CFU/mL, PDB, 12 h, peptide 0-20 μM, absorbance at 600 nm, n = 5.
From the text: as §1, §2

In series [8] the test system is Escherichia coli (E. coli, ATCC25922). It counts as cell-based. Conditions: 1 × 10^6 CFU/mL, MHB, 12 h, peptide 0-20 μM, absorbance at 600 nm, n = 5.
From the text: as §1, §2

The subject of another series is MRSA. Here is the method: (§3) The scalded mice models combined with SSTIs by MRSA or C. albicans were constructed. Fifty normal male Kunming mice (5–6 weeks old) weighing ~25 g were anesthetized by isoflurane using a small animal anesthesia machine (R640, RWD Life Science, China). After skin preparation and disinfection, a custom-made circular iron (diameter: 8 mm) (shown in Figure S4) was applied to both sides of the spine of the mice for 10 s at 300 °C, resulting in four scalded wounds. Mice were injected subcutaneously with 5 mg/kg meloxicam (Aladdin, Shanghai, China) for four days (once per day) after scalding for pain relief. Two days after scalding, the skin tissues of the scalded areas were removed carefully, and about 30 μL of 1 × 10^7 CFU/mL of MRSA or C. albicans was applied evenly onto the surfaces of the wounds. The mice were returned to the original feeding environment after the microbial fluid was completely absorbed (1.5–2 h), with two mice per cage. Corncob granules with SPF level were used as padding.
(§4) Two days after microbe inoculating, the scalded wounds of each mouse were divided into four groups randomly. […] The mice were returned to the original feeding environment after the solutions were completely absorbed. The treatment lasted for 12–16 days. Photographs of the wound areas were taken every two days using an iPhone 11 and the wound areas were measured every two days using Image J software (152-win-java8, Bethesda, MD, USA). The average wound areas on day two were used as the reference (100% unhealed) to normalized wound areas. Skin tissues of the wound areas were removed carefully at different time points (n = 5 for each time point) and weighted in a sterile environment. For MRSA infection, 10 mg of the wound tissues was dispersed into 1000 μL of sterile saline solution and the tissue solution was ground into suspension in a tissuelyser (Tissuelyser LT, Servicebio). Then, the tissue suspension was diluted with sterile saline solution 10 times and plated on MHA with a sample volume of 50 μL. For C. albicans infection, 10 mg of the wound tissues was dispersed into 200 μL of sterile saline solution and the tissue solution was also ground into suspension in the tissuelyser. The tissue suspension was then plated on PDA directly with a sample volume of 20 μL. After culturing overnight, the colonies were counted using Image J software or human eyes. In addition, the skin tissues of the wound area were removed carefully at different time points and dispersed into a 4% paraformaldehyde solution for further use.
(§5) The hematoxylin and eosin staining in this study was carried out by Servicebio (Wuhan, China). Briefly, the obtained skin tissues were soaked in 4% paraformaldehyde solution (Beyotime, China) and fixed for more than 24 h. Then, they were dehydrated and embedded with paraffin, and tissue sections having thicknesses of 4 μm were prepared. After deparaffinization and rehydration, hematoxylin and eosin staining was performed.

The nature of series [9]: Peptide stability in water by HPLC. It counts as physicochemical. Conditions: 10 mg/mL in water, 37 °C, 200 rpm, 0 and 48 h, HPLC 220 nm, repeated three times. As for the experimental part: (§6) Antimicrobial peptides were dissolved in water or rat serum with a concentration of 10 mg/mL. The solution was incubated at 37 °C, 200 rpm for different time periods, and diluted 50 times for the HPLC analysis. In water, the incubation time was 0 h and 48 h. In rat serum, the incubation time was 0, 2, 4, 7, 12, 24 or 48 h. Each incubation condition was repeated three times. HPLC was conducted on a Waters HPLC system, which consisted of a 2996 photodiode array detector, a 2695 separation module and a temperature control column oven. Column: Sinochrom ODS-BP, 5 μm, 4.6 × 250 mm (Dalian Elite Analytical Instruments Co., Ltd., Dalian, China). Mobile phase: A: 100% ACN + 0.1% TFA; B: 100% Water + 0.1% TFA. Gradient elution: 0–20 min, 95% B–100% A; 20–25 min, 100% A. Detection wavelength: 220 nm. Flow rate: 1 mL/min. Sample volume: 50 μL (0.2 mg/mL).

For series [10] the following is noted: unstable in serum; cited from earlier work. An excerpt:
The venom of scorpions, which has been proven to kill Gram-negative and Gram-positive bacteria, fungi, viruses and even tumor cells, are a rich source of antimicrobial peptides. Androctonus amoreuxi Antimicrobial Peptide 1 (AamAP1), identified from the venom-derived cDNA library of the North African scorpion, Androctonus amoeruxi, is a new type of host defense peptide. With broad-spectrum antimicrobial properties, it has been posited that AamAP1 kills bacteria cells through membrane disruption, which will not induce bacterial resistance. However, there are still some disadvantages in us ...

Series [11] can be described thus: Peptide stability in rat serum by HPLC. Format: in vitro ADME. Conditions: 10 mg/mL in rat serum, 37 °C, 200 rpm, repeated three times. As for the experimental part:
as §6

Another series deals with C. albicans. Conditions: topical 50 μM twice a day. As for the experimental part:
as §3, §4, §5

[12] abbreviates: C. albicans-infected scald wounds, mice, n = 10.
[13] abbreviates: colony count of wound tissue on PDA, n = 5.

In brackets after ≈: the same amount, converted by molar mass. Counter-ions that a name gives are not always drawn. Where no end group is shown, it is not given here.

With `CC[C@H](C)[C@H](NC(=O)[C@H](C)NC(=O)[C@H](Cc1c[nH]cn1)NC(=O)[C@@H]1CCCN1C(=O)[C@@H](NC(=O)[C@H](CC(C)C)NC(=O)[C@H](CO)NC(=O)[C@H](Cc1ccccc1)NC(=O)[C@H](CC(C)C)NC(=O)[C@@H](N)Cc1ccccc1)[C@@H](C)CC)C(=O)NCC(=O)NCC(=O)N[C@@H](CC(C)C)C(=O)N[C@H](C(=O)N[C@@H](CO)C(=O)N[C@@H](C)C(=O)N[C@@H](Cc1ccccc1)C(=O)N[C@@H](CCCCN)C(=O)O)[C@@H](C)CC` [AamAP1, Androctonus amoreuxi Antimicrobial Peptide 1, reference compound], the “Minimum inhibitory concentration (MIC), C. albicans” value in series [1] is over 20 µM. Also, the “Minimum inhibitory concentration (MIC), E. faecalis” value in series [2] is over 20 µM. Also, the “Minimum inhibitory concentration (MIC), K. pneumoniae” value in series [3] was over 20 µM. In series [4], the “Minimum inhibitory concentration (MIC), MRSA” value was over 20 µM. The “Minimum inhibitory concentration (MIC), C. krusei” value in [5] (1 × 10^6 CFU/mL, PDB, peptide 0-20 μM) is 20 µM (≈ 38.6 µg/mL). The “inhibition of C. krusei” value in series [5] (within 0-20 μM) is 90%. The “Minimum inhibitory concentration (MIC), P. aeruginosa” value in series [6] was over 20 µM. In [7], the “Minimum inhibitory concentration (MIC), C. glabrata” value is over 20 µM. Further, in series [8], the “Minimum inhibitory concentration (MIC), E. coli” value was over 20 µM. Further, in the series on MRSA (mouse, in vivo, 2 h, 50 μM), the “MRSA suppressed (inhibition rate) at day eight compared with saline solution groups” value was “more than 90%”. Further, the “time for which structural stability was retained in water” value in series [9] is recorded as at least 48 h. The predicted half-life entry in series [10] was “less than two hours”. Besides, the metabolised at 7 h, 10 mg/mL in series [11] (7 h, HPLC peak area 220 nm, read-out: peptide degraded after seven hours of co-incubation with rat serum) is over 65%. In addition, the “change of HPLC peak after incubation in rat serum for two hours” value in [11] (two hours, HPLC 220 nm) is “position of its chromatographic peak moved backward”.

As for `CCC[C@@H]1C[C@@H](C(=O)N[C@@H]([C@H]2O[C@H](SC)[C@H](O)[C@@H](O)[C@H]2O)[C@H](C)Cl)N(C)C1` [CDHC, clindamycin hydrochloride], the “wound area healed on day eight” value with MRSA (MRSA-infected scald wounds, mice, topical 50 μM twice a day, day 2 area = 100% unhealed, n = 10) is given as “more than 45%”. Further, the “unhealed wounds on day 16” value in the series with MRSA (MRSA-infected scald wounds, mice, topical 50 μM twice a day, n = 10) was “completely disappeared”.

As for `OC(Cn1cncn1)(Cn1cncn1)c1ccc(F)cc1F` [FCZ, fluconazole], in the series on C. albicans (setting [12]), the “area of the wounds healed on day 10” value is reported as “more than 95%” and the “unhealed wounds on day 12” value is “completely disappeared”. In addition, in the series on C. albicans (setting [13]), the “C. albicans in wound tissue on day 12” value is recorded as “no C. albicans detected” and the “C. albicans suppressed (inhibition rate) at day eight compared with saline solution groups” value was ~ 98%.

With FLFKLIPKAIKKLISKFK [AamAP1-Lysine], in series [10], the predicted half-life entry is “less than two hours”.
